Where two headings read alike, the source gives them in different places.
Molecular target: T1, 5-HT1A receptors (Rattus norvegicus, UniProt P19327)
T1 construct: Hippocampal tissue from the brains of male Sprague-Dawley rats; from tissue; host or cells: rat hippocampal membranes
T1 sequence (P19327 1-422): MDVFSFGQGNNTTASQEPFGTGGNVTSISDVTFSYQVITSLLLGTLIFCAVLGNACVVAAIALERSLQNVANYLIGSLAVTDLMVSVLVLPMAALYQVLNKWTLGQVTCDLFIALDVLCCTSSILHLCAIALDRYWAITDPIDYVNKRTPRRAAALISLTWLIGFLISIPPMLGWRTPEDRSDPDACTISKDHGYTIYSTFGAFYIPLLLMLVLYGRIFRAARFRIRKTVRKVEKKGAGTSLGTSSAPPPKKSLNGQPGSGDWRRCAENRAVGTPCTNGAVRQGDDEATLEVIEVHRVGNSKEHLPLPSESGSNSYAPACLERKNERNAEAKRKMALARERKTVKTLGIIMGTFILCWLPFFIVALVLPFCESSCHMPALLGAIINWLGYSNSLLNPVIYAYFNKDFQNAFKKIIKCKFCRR
Test: 5-HT1A binding: inhibition of [3H]8-OH-DPAT binding to rat hippocampal membranes
Conditions: for inhibition at 1 µM: read-out: 5-HT1A % displacement at 10^−6 M; for Ki: [3H]8-OH-DPAT 1 nM, rat hippocampal membranes, fit to data from three experiments
Experimental: Hippocampal tissue from the brains of male Sprague-Dawley rats (Charles River; weight range 150-250 g) was homogenised in ice-cold 50 mM Tris-HCl buffer (pH 7.7 when measured at 25° C., 1:40 w/v) and centrifuged at 40,000 g at 4° C. for 10 minutes. The pellet was rehomogenised in the same buffer, incubated at 37° C. for 10 minutes and centrifuged at 40,000 g at 4° C. for 10 minutes. The final pellet was resuspended in 50 mM Tris-HCl buffer (pH 7.7) containing 4 mM CaCl2, 0.1% L-ascorbic acid and 10 μM pargyline hydrochloride (equivalent to 6.25 mg wet weight of tissue/ml) and used immediately in the binding assay.
Membranes (400 μl; equivalent to 2.5 mg wet weight of tissue/tube) were incubated with 50 μl of [^3H]8-hydroxy-2-(dipropylamino)tetralin ([^3H]8-OH-DPAT) at a single concentration of 1 nM and 50 μl of distilled water (total binding) or 50 μl of test compound (at a single concentration of 10^−6 M or at 10 concentrations ranging from 10^−11-10^−3 M) or 50 μl of 5-HT (10 μM, non-specific binding) at 25° C. for 30 minutes. The incubation was terminated by rapid filtration under vacuum through Skatron 11734 filters using a Skatron Cell Harvester. Filters were washed with ice-cold 50 mM Tris-HCl buffer, pH 7.7 (at 25° C., wash setting 9,9,0). The scored filter paper discs were punched out into vials, scintillation fluid added and radioactivity determined by liquid scintillation counting.
For each of these tests measuring the ability of compounds of Formula I to displace standard ligands from 5-HT1A receptors and 5-hydroxytryptamine (5-HT) and noradrenaline (NA) reuptake sites and muscarinic receptors in vitro, the percentage displacement of specific binding of tritiated ligand by 10^−6 M test compound was calculated in the following way.
Firstly, specific binding of tritiated ligand in the absence (A) and presence (B) of test compound was determined:
In the absence of compound: A(dpm)=Total binding (dpm)−Non-specific binding (dpm) In the presence of compound (10^−6 M): B(dpm)=Binding at 10^−6M (dpm)−Non-specific binding (dpm)
The specific binding of tritiated ligand in the presence (B) of compound was then converted to a percentage of specific binding of tritiated ligand in the absence (A) of compound: % Specific binding at 10^−6 M=B(dpm)/A(dpm)×100
The percentage displacement of specific binding of tritiated ligand by the test compound (10^−6 M) was then obtained by subtraction of the percentage specific binding in the presence of compound from the percentage specific binding in the absence of compound, which is taken as the maximum binding and so equals 100%:
% Displacement at 10^−6 M=100−% Specific binding at 10^−6 M.
In some cases, displacement curves were then produced for compounds which displaced ≧50% of specific binding of the tritiated ligand at 10^−6 M using a range of concentrations of the compound. The Ki was then calculated by simultaneous fitting using equations derived from the Feldman equations by robust non-linear regression to data from three experiments simultaneously (De Lean et al., 1978; Munson and Rodbard, 1980; Feldman, 1992). Munson P J and Rodbard D. Ligand: a versatile computerised approach for characterisation of ligand binding systems. Anal Biochem 1980; 107: 220. Feldman HA. Mathematical theory of complex ligand binding systems at equilibrium: some methods for parameter fitting. Anal Biochem 1992: 48, 317. De Lean A, Munson P J and Rodbard D. Simultaneous analysis of families of sigmoidal curves: application to bioassay, radioligand assay, and physiological dose-response curves. Am J Physiol 1978: 235 (2), E97-E102.
The results obtained in the above tests for 5-HT1A binding and 5-HT and NA uptake and muscarinic binding for the final products of Examples 1-39 hereinafter are given in Table 1 below. Kis are in nM. % Figures are for % displacement at 10^−6 M for a single determination.

[1] = 10^−6 M test compound, single determination, [3H]8-OH-DPAT

Structure (SMILES)	inhibition at 1 µM [%]	Ki [nM]	further results
Br.Clc1cccc2sc(C3=CSC4=NCCN34)cc12 [Example 1, 3-(4-chlorobenzo[b]thiophen-2-yl)-5,6-dihydroimidazo[2,1-b]thiazole hydrobromide]	60		
C1=C(c2cccc3sccc23)N2CCN=C2S1.Cl [Example 2, 3-(benzo[b]thiophen-4-yl)-5,6-dihydroimidazo[2,1-b]thiazole hydrochloride]		86	
OCC1=C(c2cccc3sccc23)N2CCN=C2S1 [Example 3, [3-(benzo[b]thiophen-4-yl)-5,6-dihydroimidazo[2,1-b]thiazol-2-yl]methanol]		20.4	
OCC1=C(c2cc3c(Cl)cccc3s2)N2CCN=C2S1 [Example 4, [3-(4-chlorobenzo[b]thiophen-2-yl)-5,6-dihydroimidazo[2,1-b]thiazol-2-yl]methanol]		2.2	
Cl.Fc1cccc2sc(C3=CSC4=NCCN34)cc12 [Example 5, 3-(4-fluorobenzo[b]thiophen-2-yl)-5,6-dihydroimidazo[2,1-b]thiazole hydrochloride]	55		
Br.CC1=C(c2cc3ccccc3s2)N2CCN=C2S1 [Example 6, 3-(benzo[b]thiophen-2-yl)-2-methyl-5,6-dihydroimidazo[2,1-b]thiazole hydrobromide]		9.7	
Br.CC1=C(c2cc3c(F)cccc3s2)N2CCN=C2S1 [Example 7, 3-(4-fluorobenzo[b]thiophen-2-yl)-2-methyl-5,6-dihydroimidazo[2,1-b]thiazole hydrobromide]		11.7	
Br.CC1=C(c2cccc3sccc23)N2CCN=C2S1 [Example 8, 3-(benzo[b]thiophen-4-yl)-2-methyl-5,6-dihydroimidazo[2,1-b]thiazole hydrobromide]		14.3	
CC1=C(c2cccc3sccc23)N2CCN=C2S1.Cl [Example 9, 3-(benzo[b]thiophen-4-yl)-2-methyl-5,6-dihydroimidazo[2,1-b]thiazole hydrochloride]		15	
Br.CC1=C(c2cc3c(Cl)cccc3s2)N2CCN=C2S1 [Example 10, 3-(4-chlorobenzo[b]thiophen-2-yl)-2-methyl-5,6-dihydroimidazo[2,1-b]thiazole hydrobromide]		5.9	
Br.CCC1=C(c2cc3cc(Cl)ccc3s2)N2CCN=C2S1 [Example 11, 3-(5-chlorobenzo[b]thiophen-2-yl)-2-ethyl-5,6-dihydroimidazo[2,1-b]thiazole hydrobromide]	80		
Br.Oc1cccc2sc(C3=CSC4=NCCN34)cc12 [Example 12, 2-(5,6-dihydroimidazo[2,1-b]thiazol-3-yl)benzo[b]thiophen-4-ol hydrobromide]		52	
Br.CCC1=C(c2cccc3sccc23)N2CCN=C2S1 [Example 13, 3-(benzo[b]thiophen-4-yl)-2-ethyl-5,6-dihydroimidazo[2,1-b]thiazole hydrobromide]		15.5	
Cc1cccc2sc(C3=CSC4=NCCN34)cc12.Cl [Example 14, 3-(4-methylbenzo[b]thiophen-2-yl)-5,6-dihydroimidazo[2,1-b]thiazole hydrochloride]	64		
OCC1=C(c2cc3ccccc3s2)N2CCN=C2S1 [Example 15, [3-(benzo[b]thiophen-2-yl)-5,6-dihydroimidazo[2,1-b]thiazol-2-yl]methanol]			inhibition at 1 µM [1]: 97%
Br.CC1=C(c2cc3c(C)cccc3s2)N2CCN=C2S1 [Example 16, 2-methyl-3-(4-methylbenzo[b]thiophen-2-yl)-5,6-dihydroimidazo[2,1-b]thiazole hydrobromide]	97		
Br.CC1=C(c2cc3c(Cl)cccc3s2)N2CCCN=C2S1 [Example 17, 3-(4-chlorobenzo[b]thiophen-2-yl)-2-methyl-6,7-dihydro-5H-thiazolo[3,2-a]pyrimidine hydrobromide]	82		
Br.CCC1=C(c2cc3c(Cl)cccc3s2)N2CCN=C2S1 [Example 18, 3-(4-chlorobenzo[b]thiophen-2-yl)-2-ethyl-5,6-dihydroimidazo[2,1-b]thiazole hydrobromide]	96		
CSC1=C(c2cc3ccccc3s2)N2CCN=C2S1 [Example 19, 3-(benzo[b]thiophen-2-yl)-2-(methylthio)-5,6-dihydroimidazo[2,1-b]thiazole]		134	
Br.CC1=C(c2cc3cccc(Cl)c3s2)N2CCN=C2S1 [Example 20, 3-(7-chlorobenzo[b]thiophen-2-yl)-2-methyl-5,6-dihydroimidazo[2,1-b]thiazole hydrobromide]	98		
Br.CC1=C(c2ccc3sccc3c2)N2CCN=C2S1 [Example 21, 3-(benzo[b]thiophen-5-yl)-2-methyl-5,6-dihydroimidazo[2,1-b]thiazole hydrobromide]		31	
CSC1=C(c2cccc3sccc23)N2CCN=C2S1.Cl [Example 22, 3-(benzo[b]thiophen-4-yl)-2-(methylthio)-5,6-dihydroimidazo[2,1-b]thiazole hydrochloride]	88		
CC1=C(c2cccc3ccsc23)N2CCN=C2S1.Cl [Example 23, 3-(benzo[b]thiophen-7-yl)-2-methyl-5,6-dihydroimidazo[2,1-b]thiazole hydrochloride]		20	
Br.CC1=C(c2cc3c(Cl)c(Cl)ccc3s2)N2CCN=C2S1 [Example 24, 3-(4,5-dichlorobenzo[b]thiophen-2-yl)-2-methyl-5,6-dihydroimidazo[2,1-b]-thiazole hydrobromide]	76		
CCC1=C(c2cccc3sccc23)N2CCN=C2S1.O=C(O)/C=C/C(=O)O [Example 25, 3-(benzo[b]thiophen-4-yl)-2-ethyl-5,6-dihydroimidazo[2,1-b]thiazole fumarate]	92		
Br.COc1cccc2cc(C3=C(C)SC4=NCCN43)sc12 [Example 26, 3-(7-methoxybenzo[b]thiophen-2-yl)-2-methyl-5,6-dihydroimidazo[2,1-b]thiazole hydrobromide]	90		
Br.CC1(c2cc3cc(F)ccc3s2)CSC2=NCCN21 (stereo not drawn) [Example 27, 3-(5-fluorobenzo[b]thiophen-2-yl)-3-methyl-5,6-dihydroimidazo[2,1-b]thiazole hydrobromide]	88		
OCC1=C(c2ccc3sccc3c2)N2CCN=C2S1 [Example 28, [3-(benzo[b]thiophen-5-yl)-5,6-dihydroimidazo[2,1-b]-thiazol-2-yl]methanol]		38.5	
CC(C)C1=C(c2ccc3sccc3c2)N2CCN=C2S1 [Example 29, 3-(benzo[b]thiophen-5-yl)-2-(1-methylethyl)-5,6-dihydroimidazo[2,1-b]-thiazole]		83	
CSC1=C(c2ccc3sccc3c2)N2CCN=C2S1 [Example 30, 3-(benzo[b]thiophen-5-yl)-2-(methylthio)-5,6-dihydroimidazo[2,1-b]thiazole]			inhibition at 1 µM [1]: 66%
